Assay results published in patent US20220380724A1, “COMPOSITION FOR PROMOTING PROLIFERATION OF STEM CELLS, CONTAINING, AS ACTIVE INGREDIENT, CP1P OR PHARMACEUTICALLY ACCEPTABLE SALT THEREOF” (INDUSTRY-UNIVERSITY COOPERATION FOUNDATION HANYANG …, priority 2019, published 2022).

Assays:
Assay type in all cases: cell-based, human
[1] = system: hPSCs (CHA-ESC15); experiment: hPSC cell proliferation ability (optical microscopy and cell count); conditions: cultured 6 days; for cell proliferation rate increase compared to the control group (FIG. 3): hPSCs, 10 nM, counted day 7, control DMSO; for apoptosis seen in micrographs (FIG. 2): hPSCs, 50, 100 or 500 nM
Description: They were shaken up and down, left and right to evenly disperse the cells and cultured within 24 hours in a 37° C. CO2 incubator. The culture medium was replaced with the E8 culture medium from which Y27632 was removed, and then the cells were cultured by replacing the culture medium every day until the next passage.
On the 7th day, the cells were observed using an optical microscope at a magnification of 100 times.
In addition, in order to measure the number of cells, the culture medium of the cells was removed on the 7th day of culture, and they were washed once with PBS. Then, for PBS-removed cells, cell dissociation buffer ([…]) was used to cause single-cell. The separated cells were centrifuged at 1000 rpm for 2 minutes to remove the buffer. Then, the cells were suspended in an E8 medium, and the number of cells was measured using EVE™ Automated Cell Counter (NanoEnTek).
Meanwhile, the control group was tested in the same manner as above, except that hPSCs were treated with DMSO (AppliChem GE, A3672,0100).
The culture was performed for 6 days, and hPSCs were observed on the 7th day. The proliferation rate was calculated as {(total number of cells in P1P, cP1P, or SW treatment group)/(total number of cells in the control group)}×100.

[2] = system: hPSCs; experiment: Alkaline phosphatase staining of hPSCs (undifferentiation ability); conditions: 10 nM, compared to DMSO control
Description: In order to check whether the differentiation ability of hPSCs was changed by cP1P treatment, hPSCs were treated with 10 nM cP1P or a control group (vehicle, DMSO) in the same manner as in Example 2.

[3] = system: hPSCs; experiment: hPSC proliferation during subculture (total number of cells); conditions: continuous 10 nM, subculture 3 times, P<0.01
Description: In order to check whether the change in hPSCs proliferation ability by cP1P treatment is maintained during subculture, hPSCs were continuously treated with 10 nM cP1P in the same manner as in Example 1, and after subculture 3 times, the proliferation change of hPSCs was confirmed.

[4] = system: hPSCs; experiment: hPSC cell cycle by PI flow cytometry; conditions: 10 nM
Description: For flow cytometry, hPSCs were treated with 10 nM cP1P in the same manner as in Example 1, and hPSCs were separated using cell dissociation buffer (Thermo Fisher Scientific US, A1110501), and harvested cells were washed three times with DPBS (pH 7.4). After washing, the supernatant was removed. During washing, cold 70% (v/v) ethanol was added dropwise to the cell pellet. The cells were fixed at 4° C. for 1 hour and washed 3 times with DPBS (pH 7.4). After centrifugation at 2,000 rpm for 5 minutes, 50 uL of 100 μg/ml RNase (Sigma-Aldrich US, R4642) was added. They were mixed well and added with 200 μl of PI (propidium iodide) (Sigma-Aldrich US, P4170) (50 μg/ml) to stain the DNA. Then, the DNA content was measured using flow cytometry (BD).

[5] = system: CDK1, Cyclin B; experiment: Expression of cell cycle regulatory genes in hPSCs; conditions: 10 nM, compared to control
Description: (§1) For expression analysis of cell cycle regulatory genes, hPSCs were treated with 10 nM cP1P in the same manner as in Example 1. After hPSCs were washed with PBS, hPSCs were fixed in 4% (w/v) PFA (Santa Cruz Biotechnology US, 30525-89-4) for 5 minutes, or after the protein of hPSC cells was recovered, followed by electrophoresis. The expression of pluripotency genes was analyzed (immunofluorescence analysis or Western blot analysis) using anti-REX1(Abcam UK, ab50828), anti-OCT4(Santa Cruz Biotechnology US, sc-5279), anti-SOX2(Abcam UK, ab97959), anti-NANOG(Cell signaling US, 4893s), anti-E-cadherin(Cell signaling US, 24E10), or anti-SSEA4(Merck millipore US, 90231) antibody. Meanwhile, the control group was tested in the same manner as above, except that hPSCs were treated with DMSO (AppliChem GE, A3672,0100).

[6] = system: hPSCs; experiment: Apoptosis and cytotoxicity assay (Annexin V / 7-AAD); conditions: 5 days; for apoptosis marker, (Annexin V, early apoptosis marker; FIG. 8): DMSO control 0.5%; for apoptosis marker, (7-AAD, late apoptosis marker; FIG. 8): DMSO control 6.2%
Description: In order to confirm apoptosis, hPSCs were treated with 10 nM cP1P in the same manner as in Example 1, hPSCs were separated using cell dissociation buffer (Thermo Fisher Scientific US, A1110501), and harvested cells were washed with DPBS (pH 7.4) 2 times. After centrifuged at 2,000 rpm for 5 minutes. The cells were resuspended at 1×10^5 cells per 100 ul of 1× binding buffer to which 10× binding buffer (0.1 M HEPES, 1.4 M NaCl, 25 mM CaCl2, pH 7.4) was diluted. They were added with 5 ul each of Annexin V (BD bioscience US, 556422) and 7-AAD (BD bioscience U.S. Pat. No. 1,559,925) and mixed slowly. They were cultured for 15 minutes in the dark at room temperature and added with 400 ul of 1× binding buffer. Then, analysis was performed using the Annexin V apoptosis detection kit (BD Pharmingen US, 556547).
In order to confirm whether apoptosis and cytotoxicity were induced when hPSCs were treated with cP1P, hPSCs were treated with 10 nM or 100 nM cP1P for 5 days in the same manner as in Example 6, and then Annexin V apoptosis detection kit (BD Pharmingen US, 556547) was used for analysis.

[7] = system: REX1, E-Cadherin, OCT4, SOX2, NANOG, SSEA-4; experiment: Pluripotency marker expression in hPSCs (immunofluorescence, pluripotent array kit, flow cytometry, Western blot); conditions: 100 nM
Description: as §1
Specifically, hPSCs were treated with 100 nM cP1P in the same manner as in Example 1. Immunofluorescence analysis was performed in the same manner as in Example 6. Expression of pluripotency-related genes was analyzed using a pluripotent array kit (R&D System US, ARY101). Flow cytometry was performed in the same manner as in Example 6.

[8] = system: hPSCs; experiment: RNA sequencing of hPSCs after long-term (15 passages) treatment; conditions: 10 nM
Description: Specifically, hPSCs were treated and cultured with 10 nM cP1P or were treated and cultured with DMSO as a control group in the same manner as in Example 1. The passage in which cP1P was first treated was defined as 0 and cultured up to a total of 15 passages. After the cells were recovered, and RNAs were extracted. The RNA sequencing analysis was performed with a next-generation sequencing analyzer (Illumina HiSeq 2500) by DGIST (Daegu Gyeongbuk Institute of Science and Technology) asked to analyze the cells.

CCCCCCCCCCCCCC[C@@H](O)[C@H]1OP(=O)(O)OC[C@@H]1N [cP1P, o-cyclic phytosphingosine-1-phosphate]
cell proliferation rate increase compared to the control group (FIG. 3) [1]: 1.78 times
cell proliferation ability (FIG. 2) ([1]; hPSCs, 50, 100 or 500 nM every 2 days, observed day 7, compared to P1P or S1P): significantly increased
undifferentiation ability (alkaline phosphatase staining, FIG. 4) [2]: well maintained
total number of cells as subculture was performed (FIG. 6) [3]: increased significantly
increase of cell proliferation compared to the control group (FIG. 7A) [4]: ≥ 12%
number of cells in G2/M phase (FIG. 7B) ([4]; compared to control, P<0.01): significantly increased
number of cells in sub-GO phase (apoptotic cells, FIG. 7B) ([4]; compared to control, P>0.05): significantly reduced
cell proliferation, experimental group (FIG. 7A) ([4]; control group 48%): 60%
expression of genes regulating the cell cycle (CDK1, Cyclin B; FIGS. 7C to 7E) [5]: increased
apoptosis compared to the control group (FIG. 8) ([6]; 10 nM or 100 nM): reduced
cytotoxicity compared to the control group (FIG. 8) ([6]; 10 nM or 100 nM): significantly lowered
apoptosis marker, (Annexin V, early apoptosis marker; FIG. 8) ([6]; 10 nM): 0.9%
apoptosis marker, (7-AAD, late apoptosis marker; FIG. 8) ([6]; 10 nM): 3.9%
apoptosis marker, (Annexin V, early apoptosis marker; FIG. 8) ([6]; 100 nM): 1.9%
apoptosis marker, (7-AAD, late apoptosis marker; FIG. 8) ([6]; 100 nM): 5.3%
expression of pluripotency marker genes REX1, E-Cadherin, OCT4 and SOX2 (immunofluorescence, FIG. 9A) ([7]; compared to control): increased
protein expression of OCT4 and E-Cadherin (FIG. 9D) ([7]; compared to control): increased
spots of pluripotency-related genes OCT4, NANOG, SOX2 and E-Cadherin (array, FIG. 9B) ([7]; compared to control): detected to be high
protein expression of SSEA-4 (FIG. 9C) ([7]; control 68.8%): 82.2%
protein expression of E-Cadherin (FIG. 9C) ([7]; control 81.8%): 85.6%
protein expression of REX1 (FIG. 9C) ([7]; control 86.8%): 95.7%
protein expression of OCT4 (FIG. 9C) ([7]; control 95.2%): 96.5%
cluster 5 (C5) gene expression (cell development, embryo development, cell proliferation genes) ([8]; decreased in untreated control): stably maintained
cluster 2 (C2) gene expression (oxidative stress and apoptotic process genes) ([8]; increased in untreated control): decreased
gene expression changes (DEG) compared with passage 0 (FIG. 10) ([8]; no cP1P-treated group 575): 197

CCCCCCCCCCCCCC[C@@H](O)[C@@H](O)[C@@H](N)COP(=O)(O)O [P1P, phytosphingosine-1-phosphate]
cell proliferation rate increase compared to the control group (FIG. 3) [1]: about 1.55 times
apoptosis seen in micrographs (FIG. 2) ([1]; observed day 7): apoptosis occurred

CCCCCCCCCCCCC/C=C/[C@@H](O)[C@@H](N)COP(=O)(O)O [S1P, sphingosine-1-phosphate]
cell proliferation rate increase compared to the control group (FIG. 3) [1]: about 1.25 times
apoptosis seen in micrographs (FIG. 2) ([1]; observed day 7): apoptosis occurred
